Laboratory results published in article PMC8829872 (Cancer chemotherapy and pharmacology, 2022).
Read-outs that look alike come from different tables or passages of the source.

Assay: Extensive tissue distribution study in CT26 tumor-bearing mice
Format: in vivo, Balb/c mice
Conditions: for Kp: oral, 75 mg/kg
Procedure: Mice were injected subcutaneously on the right flank with 1x10^6 CT26 cells, a murine colorectal carcinoma cell line from BALB/c mice,obtained from ATCC (Manassas, VA). Cells were cultured in RPMI-1640 medium with L-glutamine (BioWhittaker Inc., Walkersville, MD), containing 10% heat-inactivated fetal bovine serum and 100 units of penicillin/mL and 100 μg/mL of streptomycin (Biofluids, BioSource, Rockville, MD) in an incubator with 95% air, 5% CO2, and 95% humidity at 37 °C. Cells were verified and checked for mycoplasm by IDEXX BioAnalytics (Westbrook, ME). Implantation and tumor growth were monitored twice weekly with a digital caliper. When tumors were approximately 200 mm^3, mice were stratified into time groups (N=3) primarily using body weight and secondarily using tumor size. Mice were administered 75 mg/kg PO through oral gavage. […] Bone marrow was obtained by flushing both femurs from each mouse with PBS, followed by centrifugation at 12,000 x g and removal of the supernatant. Protein analysis of the resuspended pellet was conducted using the Bio-Rad protein assay following the manufacturer’s instructions with bovine serum albumin as the standard. Blood was processed to obtain plasma and urine and feces were collected as described above.
For tissue and tumor analysis, samples were homogenized with 3 parts PBS (v/g) and further diluted with control plasma and concentrations determined from calibration curves prepared in control plasma.

[1] = Balb/c, mouse, 75 mg/kg PO-ext, plasma

Cl (75 mg/kg PO-ext): 37.3 mL/min/kg
Vd (75 mg/kg PO-ext): 5.66 L/kg
0-24h urine (75 mg/kg PO-ext, unaltered drug): 3.19 % dose
0-24h feces (75 mg/kg PO-ext, unchanged drug): 8.58 % dose
AUC0-∞ (75 mg/kg PO, Plasma): 2,371 (185) μg/mL•min
Cmax (75 mg/kg PO, Plasma): 14.1 (1.7) μg/mL
Tmax (75 mg/kg PO, Plasma): 15 min
AUC(0-t) (75 mg/kg PO, Plasma, 0-1440 min): 2,371 (185) μg/mL•min
Kp (Balb/c, mouse, bone marrow / plasma, 75 mg/kg PO, Bone Marrow to corresponding plasma AUC (0-360), read-out: Partition Coefficient): 4.6
Kp (Balb/c, mouse, brain, 75 mg/kg PO, Brain to corresponding plasma AUC (0-960), read-out: Partition Coefficient): ~0.05
Kp (Balb/c, mouse, draining lymph node / plasma, 75 mg/kg PO, Draining Lymph Node to plasma AUC, read-out: Partition Coefficient): 0.792
Kp (Balb/c, mouse, esophagus / plasma, 75 mg/kg PO, Esophagus to plasma AUC, read-out: Partition Coefficient): 3.27
Kp (Balb/c, mouse, fat, 75 mg/kg PO, Fat to plasma AUC, read-out: Partition Coefficient): 0.412
Kp (Balb/c, mouse, kidney / plasma, 75 mg/kg PO, Kidneys to plasma AUC, read-out: Partition Coefficient): 2.77
AUC(0-inf) (Balb/c, mouse, kidney, 75 mg/kg PO, Kidneys): 109000 ng·h/mL
AUC(0-t) (Balb/c, mouse, kidney, 75 mg/kg PO, Kidneys, 0-1440 min, read-out: AUC0-t (converted)): 109000 ng·h/mL
Cmax (Balb/c, mouse, kidney, 75 mg/kg PO, Kidneys, read-out: Cmax): 39200 ng/mL
Tmax (Balb/c, mouse, kidney, 75 mg/kg PO, Kidneys, read-out: Tmax (converted)): 15 min
Kp (Balb/c, mouse, liver / plasma, 75 mg/kg PO, Liver to plasma AUC, read-out: Partition Coefficient): 7.42
AUC(0-inf) (Balb/c, mouse, lung, 75 mg/kg PO, Lungs): 42100 ng·h/mL
AUC(0-t) (Balb/c, mouse, lung, 75 mg/kg PO, Lungs, 0-1440 min, read-out: AUC0-t (converted)): 42100 ng·h/mL
Cmax (Balb/c, mouse, lung, 75 mg/kg PO, Lungs, read-out: Cmax): 17400 ng/mL
Tmax (Balb/c, mouse, lung, 75 mg/kg PO, Lungs, read-out: Tmax (converted)): 15 min
Kp (Balb/c, mouse, non-draining lymph node / plasma, 75 mg/kg PO, Non-draining Lymph Node to plasma AUC, read-out: Partition Coefficient): 0.983
Kp (Balb/c, mouse, red blood cells (RBC) / plasma, 75 mg/kg PO, RBC to plasma AUC, read-out: Partition Coefficient): 0.701
AUC(0-inf) (Balb/c, mouse, red blood cells (RBC), 75 mg/kg PO, RBC): 27700 ng·h/mL
AUC(0-t) (Balb/c, mouse, red blood cells (RBC), 75 mg/kg PO, RBC, 0-1440 min, read-out: AUC0-t (converted)): 27700 ng·h/mL
Cmax (Balb/c, mouse, red blood cells (RBC), 75 mg/kg PO, RBC, read-out: Cmax): 13200 ng/mL
Tmax (Balb/c, mouse, red blood cells (RBC), 75 mg/kg PO, RBC, read-out: Tmax (converted)): 15 min
AUC(0-inf) (Balb/c, mouse, skeletal muscle, 75 mg/kg PO, Muscle): 41200 ng·h/mL
AUC(0-t) (Balb/c, mouse, skeletal muscle, 75 mg/kg PO, Muscle, 0-1440 min, read-out: AUC0-t (converted)): 41200 ng·h/mL
Cmax (Balb/c, mouse, skeletal muscle, 75 mg/kg PO, Muscle, read-out: Cmax): 12500 ng/mL
Tmax (Balb/c, mouse, skeletal muscle, 75 mg/kg PO, Muscle, read-out: Tmax (converted)): 15 min
Kp (Balb/c, mouse, small intestine / plasma, 75 mg/kg PO, Small Intestine to plasma AUC, read-out: Partition Coefficient): 8.39
Kp (Balb/c, mouse, spinal cord, 75 mg/kg PO, Spinal Cord to plasma AUC, read-out: Partition Coefficient): ~0.05
Kp (Balb/c, mouse, spleen / plasma, 75 mg/kg PO, Spleen to plasma AUC, read-out: Partition Coefficient): 0.891
Kp (Balb/c, mouse, thymus / plasma, 75 mg/kg PO, Thymus to plasma AUC, read-out: Partition Coefficient): 0.652
Kp (Balb/c, mouse, tumor / plasma, 75 mg/kg PO, Tumor to plasma AUC, read-out: Partition Coefficient): 0.75
Kp (Balb/c, mouse, tumor, 75 mg/kg PO, CT26 tumor, read-out: Tumor exposure relative to plasma): ~0.75
Cmax (Balb/c, mouse, 75 mg/kg PO-ext (tissue distribution study), plasma, read-out: Cmax): 14100 ng/mL
AUC(0-inf) [1]: 39500 ng·h/mL
half-life [1]: 105 min
AUC(0-t) (Balb/c, mouse, 75 mg/kg PO-ext, plasma, read-out: AUC0-360 (converted)): 39500 ng·h/mL
Tmax (Balb/c, mouse, 75 mg/kg PO-ext, plasma, read-out: Tmax (converted)): 15 min
AUC(0-inf) (Balb/c, mouse, 75 mg/kg PO, Bone Marrow): 133000 ng·h/mL
AUC(0-t) (Balb/c, mouse, 75 mg/kg PO, Bone Marrow, 0-360 min, read-out: AUC0-t (converted)): 133000 ng·h/mL
Cmax (Balb/c, mouse, 75 mg/kg PO, Bone Marrow, read-out: Cmax): 65800 ng/mL
Tmax (Balb/c, mouse, 75 mg/kg PO, Bone Marrow, read-out: Tmax (converted)): 30 min
AUC(0-inf) (Balb/c, mouse, 75 mg/kg PO, Brain): 2100 ng·h/mL
AUC(0-t) (Balb/c, mouse, 75 mg/kg PO, Brain, 0-960 min, read-out: AUC0-t (converted)): 2100 ng·h/mL
Cmax (Balb/c, mouse, 75 mg/kg PO, Brain, read-out: Cmax): 854 ng/mL
Tmax (Balb/c, mouse, 75 mg/kg PO, Brain, read-out: Tmax (converted)): 15 min
AUC(0-inf) (Balb/c, mouse, 75 mg/kg PO, CT26 Tumor): 29600 ng·h/mL
AUC(0-t) (Balb/c, mouse, 75 mg/kg PO, CT26 Tumor, 0-1440 min, read-out: AUC0-t (converted)): 29600 ng·h/mL
Cmax (Balb/c, mouse, 75 mg/kg PO, CT26 Tumor, read-out: Cmax): 10100 ng/mL
Tmax (Balb/c, mouse, 75 mg/kg PO, CT26 Tumor, read-out: Tmax (converted)): 30 min
AUC(0-inf) (Balb/c, mouse, 75 mg/kg PO, Draining Lymph Node): 31300 ng·h/mL
AUC(0-t) (Balb/c, mouse, 75 mg/kg PO, Draining Lymph Node, 0-1440 min, read-out: AUC0-t (converted)): 31200 ng·h/mL
Cmax (Balb/c, mouse, 75 mg/kg PO, Draining Lymph Node, read-out: Cmax): 12100 ng/mL
Tmax (Balb/c, mouse, 75 mg/kg PO, Draining Lymph Node, read-out: Tmax (converted)): 15 min
AUC(0-inf) (Balb/c, mouse, 75 mg/kg PO, Esophagus): 129000 ng·h/mL
AUC(0-t) (Balb/c, mouse, 75 mg/kg PO, Esophagus, 0-1440 min, read-out: AUC0-t (converted)): 129000 ng·h/mL
Cmax (Balb/c, mouse, 75 mg/kg PO, Esophagus, read-out: Cmax): 115000 ng/mL
Tmax (Balb/c, mouse, 75 mg/kg PO, Esophagus, read-out: Tmax (converted)): 5 min
AUC(0-inf) (Balb/c, mouse, 75 mg/kg PO, Fat): 16300 ng·h/mL
SMILES: C[C@@H]1COCCN1c1cc(C2([S@](C)(=N)=O)CC2)nc(-c2cc[nH]c3nccc2-3)n1 [AZD6738]
